Laboratory results as given in patent US20090069373A1, “Quinoline Acids” (Wyeth, priority 2007, published 2009).

Legend:
human LXRβ = molecular target: T1, human LXRβ (Homo sapiens, UniProt P55055); experiment: Ligand-binding test procedure for human LXRβ (3H T0901317 competition, flash plates); conditions: for Binding ratio a/b: IC50 (μM) LXRα binding/IC50 (μM) LXRβ binding; for IC50: biotinylated hLXRβ, tracer 3H T0901317
T1 construct: biotin (biotinylated; biotinylation tag not described); made in house; host or cells: E. coli
T1 sequence (P55055 1-460): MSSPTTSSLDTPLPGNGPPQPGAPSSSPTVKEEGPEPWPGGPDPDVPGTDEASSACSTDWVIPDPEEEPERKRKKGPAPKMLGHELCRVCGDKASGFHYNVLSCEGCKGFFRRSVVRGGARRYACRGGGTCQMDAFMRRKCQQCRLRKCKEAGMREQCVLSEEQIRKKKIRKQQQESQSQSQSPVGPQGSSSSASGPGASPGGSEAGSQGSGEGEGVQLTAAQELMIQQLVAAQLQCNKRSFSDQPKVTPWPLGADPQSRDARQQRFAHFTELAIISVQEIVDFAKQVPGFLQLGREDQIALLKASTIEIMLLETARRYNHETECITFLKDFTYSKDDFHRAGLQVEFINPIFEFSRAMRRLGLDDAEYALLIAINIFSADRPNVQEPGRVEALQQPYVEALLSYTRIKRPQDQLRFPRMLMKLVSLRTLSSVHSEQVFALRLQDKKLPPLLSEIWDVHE

human LXRα = molecular target: T2, human LXRα (Homo sapiens, UniProt Q13133); experiment: Ligand-binding test procedure for human LXRα (3H T0901317 competition, flash plates); conditions: biotinylated hLXRα, tracer 3H T0901317
T2 construct: biotin (biotinylated; biotinylation tag not described); made in house; host or cells: E. coli
T2 sequence (Q13133 1-447): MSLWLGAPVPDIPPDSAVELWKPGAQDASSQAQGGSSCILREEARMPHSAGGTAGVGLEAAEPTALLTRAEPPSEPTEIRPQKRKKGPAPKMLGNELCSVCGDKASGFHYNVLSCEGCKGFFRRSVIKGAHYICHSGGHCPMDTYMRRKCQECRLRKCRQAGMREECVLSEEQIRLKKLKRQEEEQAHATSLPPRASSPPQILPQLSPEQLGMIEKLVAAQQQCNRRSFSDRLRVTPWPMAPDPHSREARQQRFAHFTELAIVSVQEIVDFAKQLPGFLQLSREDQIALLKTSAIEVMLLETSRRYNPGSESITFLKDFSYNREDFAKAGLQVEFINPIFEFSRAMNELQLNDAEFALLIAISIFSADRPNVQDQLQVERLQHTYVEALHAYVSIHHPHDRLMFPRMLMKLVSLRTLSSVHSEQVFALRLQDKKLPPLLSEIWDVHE
How it was run: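 Competition binding of test ligands against 5 nM ³H tracer solution (pre-mix concentration) on biotinylated hLXRα from E. coli extract, captured on streptavidin flash plates (Bmax ~4000 cpm). Ligand dilution series made in DMSO. Incubated overnight at +4 °C; bound radioactivity counted after washing.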

ABCA1 gene = experiment: Quantitative analysis of ABCA1 gene regulation in THP-1 cells (real-time RT-PCR); format: cell-based, human; conditions: differentiated THP-1 cells, ABCA1 mRNA, 18 hrs; for EC50: Homo sapiens; for THP cells ABCA1 Ag. (%): LXR agonist reference at 1.0 uM as positive control
Procedure: Quantitative Analysis of ABCA1 Gene Regulation in THP-1 Cells. […] Materials and Methods Cell culture: The THP-1 monocytic cell line (ATCC # TIB-202) was obtained from American Type Culture Collection (Manassas, Va.) and cultured in RPMI 1640 medium (Gibco, Carlsbad, Calif.) containing 10% FBS, 2 mM L-glutamine, and 55 uM beta-Mercaptoethanol (BME). […] Louis, Mo.) for three days to induce differentiation into adherent macrophages. Differentiated THP-1 cells were treated with test compounds or ligands dissolved in DMSO (Sigma, D-8779) in culture medium lacking phorbal ester. […] L., J. Med. Chem. (2000), 45:1963-1966.). Results of antagonist analysis are expressed as % antagonism and IC50 (in μM).

Row | Compound | Binding ratio a/b (human LXRβ) | IC50 (human LXRβ) [nM] | IC50 (human LXRα) [nM] | EC50 (ABCA1 gene) [nM] | THP cells ABCA1 Ag. (%) (ABCA1 gene)
1 | O=C(O)Cc1cccc2c(OCc3cccc(-c4ccnc5c(C(F)(F)F)cccc45)c3)cccc12 [Example 5, [5-({3-[8-(Trifluoromethyl)quinolin-4-yl]benzyl}oxy)-1-naphthyl]acetic acid] | 30 | 26 | 779 | 3390 | 69.4
2 | O=C(O)Cc1cccc2c(NCc3cncc(-c4c(Cc5ccccc5)cnc5c(C(F)(F)F)cccc45)c3)cccc12 [Example 3, {5-[({5-[3-Benzyl-8-(trifluoromethyl)quinolin-4-yl]pyridin-3-yl}methyl)amino]-1-naphthyl}acetic acid] | 32 | 30 | 964 | 4760 | 69.1
3 | Cc1cnc2c(C(F)(F)F)cccc2c1-c1cccc(COc2cccc3c(CC(=O)O)cccc23)c1 [Example 9] | 22 | 13 | 294 | 1140 | 122.6
4 | O=C(O)Cc1cccc2c(NCc3cccc(-c4ccnc5c(C(F)(F)F)cccc45)c3)cccc12 [Example 1, [5-({3-[8-(Trifluoromethyl)quinolin-4-yl]benzyl}amino)-1-naphthyl]acetic acid] | 48 | 15 | 745 | 3760 | 91.15
